Data published in patent US8546404B2, “Compounds that are ERK inhibitors” (Merck Sharp & Dohme, priority 2005, dated 2013).

Key:
[1] = Cassette Accelerating Rapid Rat Screen (CARRS), AUC during the first 6 hours; assay type: in vivo, Male Sprague-Dawley rats; conditions: male, Sprague-Dawley, plasma, 10 mg/kg, PO, AUC during the first 6 hours (AUC6hr)
Method: The AUC (Area Under the Concentration-Time Curve During the First 6 Hours (AUC6hr) in Table 30 Below was Determined Using the Protocol of Cassette Accelerating Rapid Rat Screen (CARRS)
Animal Dosing and Sample Collection
Male Sprague-Dawley rats (Charles River, Co.) were pre-cannulated (femoral artery) in order to facilitate precise blood sampling times, and to reduce the stress on the animals caused by serial bleedings. Following an overnight fast, two rats were dosed orally with one compound at a dose of 10 mg/kg in a 5-mL/kg dose volume. Blood was collected into heparin-containing tubes serially from each animal at 0.5, 1, 2, 3, 4 and 6 h post-dosing and centrifuged to generate plasma. Approximately 100 μL of plasma were collected at the individual time points. The plasma samples were stored at −20° C. until analysis.
Plasma Sample and Standard Curve Preparation
A set of 12 rat plasma samples was generated for each NCE (i.e. 6 timepoints and n=2 rats). These 12 samples were pooled across the two rats at each timepoint to provide 6 pooled samples (one sample per time point) for each NCE. The pooled samples were assayed as cassettes of six (36 samples total) to provide data on the six compounds. The 50-μL aliquots of the 36 plasma samples were placed into individual wells of a 96-well plate. An additional compound (often a structural analog of the test compounds) was selected as the internal standard. A mini-calibration curve was prepared (three points plus a zero) for each compound assayed. Drug-free rat plasma was measured into 1-mL aliquots and each aliquot was spiked with known concentrations of the compounds to generate standards of the desired concentrations. The concentrations of the standards were chosen to bracket the expected concentration of the pooled samples based on historical data from previous studies on other compounds. For this work, the standards were set to contain concentrations of 25, 250 and 2500 ng NCE/mL plasma. The plasma standards were precipitated in duplicate along with the samples. Protein precipitation occurred after addition of 150 μL of acetonitrile containing the internal standard at a concentration of 1 ng/mL into each sample well using the Tomtec Quadra 96 system. The precipitated samples and standards were vortexed and centrifuged in the 96-well plate. Approximately 50-100 μL of the supernatant were removed and placed into a fresh 96-well plate using the Tomtec Quadra 96 system. A volume of 5-10 μL of the supernatant was used for analysis by HPLC-MS/MS. The mini-standard curve was run in duplicate, once before and once after the samples. Thus, a total of 14 study samples plus standards were analyzed per compound. In addition, solvent blanks were injected before and after each set of 14 and after the highest calibration standard for each compound; therefore, a total of 103 injections were made into each HPLC system for each set of six compounds. Multiple solvent blank injections could be made from a single well. Twelve solvent blank wells were designated in each 96-well plate. Thus, one batch (cassette) of six NCEs was prepared and assayed using one 96-well plate format.
All the compounds were analyzed using selected reaction monitoring (SRM) methods with LC/MS/MS instruments. Once the method development had been completed, the assay was quickly set up using a standard injection sequence template for the CARRS assay.

[2] = molecular target: fully phosphorylated, active Mouse ERK2 protein (Mus musculus (Mouse), UniProt P63085); assay: Active ERK2 Assay (IMAP format); assay type: biochemical; conditions: read-out: AERK2 IC50
Method: Activated ERK2 activity was also determined in the IMAP assay format using the procedure outlined above. […] Reactions proceeded for 30 minutes before termination by addition of 60 μl IMAP detection beads in binding buffer. Plates were read as above after 30 minute binding equilibration.

Sequence of fully phosphorylated, active Mouse ERK2 protein (P63085 whole entry): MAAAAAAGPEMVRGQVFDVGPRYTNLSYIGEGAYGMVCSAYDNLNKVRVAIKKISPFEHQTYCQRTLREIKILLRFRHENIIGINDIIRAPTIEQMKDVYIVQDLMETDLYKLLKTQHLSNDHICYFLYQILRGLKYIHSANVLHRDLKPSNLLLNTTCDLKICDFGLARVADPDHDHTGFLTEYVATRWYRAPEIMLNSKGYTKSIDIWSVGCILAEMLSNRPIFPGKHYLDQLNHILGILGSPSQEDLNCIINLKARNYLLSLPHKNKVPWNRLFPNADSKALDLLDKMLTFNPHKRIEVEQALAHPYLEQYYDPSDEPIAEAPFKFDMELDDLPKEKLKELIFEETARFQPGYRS

| SMILES | AUC [1] [µM·h] | IC50 [2] [nM] |
| --- | --- | --- |
| CS[C@@]1(C(=O)Nc2ccc3[nH]nc(-c4ccc(F)cc4)c3c2)CCN(CC(=O)N2CCN(c3ccc(-c4ncccn4)cn3)C[C@H]2C)C1 [Example 641] | – | 0.16 to 18 |
| CS[C@@]1(C(=O)Nc2ccc3[nH]nc(-c4ccc(F)cc4)c3c2)CCN(CC(=O)N2CCN(c3ccc(-c4ncccn4)cc3)CC2)C1 [Example 647] | – | 0.16 to 18 |
| CS[C@@]1(C(=O)Nc2ccc3[nH]nc(-c4ccnc(C5CC5)c4)c3c2)CCN(CC(=O)N2CC=C(c3ccc(-c4ncccn4)cc3F)CC2)C1 [Example 651] | – | 0.16 to 18 |
| CO[C@@]1(C(=O)Nc2ccc3[nH]nc(-c4ccc(F)cc4)c3c2)CCN(CC(=O)N2CCN(c3cc(F)c(-c4ncccn4)cc3F)CC2)C1 [Example 663] | – | 0.16 to 18 |
| CO[C@@]1(C(=O)Nc2ccc3[nH]nc(-c4cc[n+]([O-])c(C5CC5)c4)c3c2)CCN(CC(=O)N2CCC(c3ccc(-c4ncccn4)cc3)CC2)C1 [Example 669] | – | 0.16 to 18 |
| COc1cc(C2CCN(C(=O)CN3CC[C@@](OC)(C(=O)Nc4ccc5[nH]nc(-c6ccnc(C7CC7)c6)c5c4)C3)CC2)ccc1-c1ncccn1 [Example 672] | – | 0.16 to 18 |
| CO[C@@]1(C(=O)Nc2ccc3[nH]nc(-c4ccnc(C(F)F)c4)c3c2)CCN(CC(=O)N2CCC(C)(c3ccc(-c4ncccn4)cc3)CC2)C1 [Example 679] | – | 0.16 to 18 |
| CO[C@@]1(C(=O)Nc2ccc3[nH]nc(-c4ccnc(C5CC5)c4)c3c2)CCN(CC(=O)N2CCC(C)(c3ccc(-c4ncccn4)cc3)CC2)C1 [Example 680] | – | 0.16 to 18 |
| CO[C@@]1(C(=O)Nc2ccc3[nH]nc(-c4ccnc(C5CC5)c4)c3c2)CCN(CC(=O)N2CC=C(c3ncc(-c4ncccn4)s3)CC2)C1 [Example 777] | – | 0.16 to 18 |
| CO[C@@]1(C(=O)Nc2ccc3[nH]nc(C4CCOCC4)c3c2)CCN(CC(=O)N2CC=C(c3ccc(-c4ncccn4)cc3)CC2)C1 [Example 779] | – | 0.16 to 18 |
| CO[C@@]1(C(=O)Nc2ccc3[nH]nc(-c4ccnc(C(F)F)c4)c3c2)CCN(CC(=O)N2CCC(c3ccc(-c4ncccn4)cc3)CC2)C1 [Example 786] | – | 0.16 to 18 |
| CO[C@@]1(C(=O)Nc2ccc3[nH]nc(-c4ccnc(C(F)(F)F)c4)c3c2)CCN(CC(=O)N2CCC(c3ccc(-c4ncccn4)cc3)CC2)C1 [Example 788] | – | 0.16 to 18 |
| CO[C@@]1(C(=O)Nc2ccc3[nH]nc(-c4ccnc(C)c4)c3c2)CCN(CC(=O)N2CCC(c3ccc(-c4ncccn4)cc3)CC2)C1 [Example 789] | – | 0.16 to 18 |
| CO[C@@]1(C(=O)Nc2ccc3[nH]nc(-c4ccc(F)c(F)c4)c3c2)CCN(CC(=O)N2CCC(c3ccc(-c4ncccn4)cc3)CC2)C1 [Example 792] | – | 0.16 to 18 |
| CO[C@@]1(C(=O)Nc2ccc3[nH]nc(-c4ccc(N(C)C)cc4)c3c2)CCN(CC(=O)N2CCC(c3ccc(-c4ncccn4)cc3)CC2)C1 [Example 793] | – | 0.16 to 18 |
| CO[C@@]1(C(=O)Nc2ccc3[nH]nc(-c4ccc(F)c(CO)c4)c3c2)CCN(CC(=O)N2CCC(c3ccc(-c4ncccn4)cc3)CC2)C1 [Example 794] | – | 0.16 to 18 |
| CO[C@@]1(C(=O)Nc2ccc3[nH]nc(-c4ccc5c(c4)OCO5)c3c2)CCN(CC(=O)N2CCN(c3ccc(-c4ncccn4)cn3)C[C@H]2C)C1 [Example 799] | – | 0.16 to 18 |
| CCc1cc(-c2n[nH]c3ccc(NC(=O)[C@]4(OC)CCN(CC(=O)N5CC=C(c6nccs6)CC5)C4)cc23)ccn1 [Example 802] | – | 0.16 to 18 |

Continued, values first:

| AUC [1] [µM·h] | IC50 [2] [nM] | SMILES |
| --- | --- | --- |
| 7.22 | – | COC[C@@]1(C(=O)Nc2ccc3[nH]nc(-c4ccnc(C5CC5)c4)c3c2)CCN(CC(=O)N2CC=C(c3ccc(-c4ncccn4)cc3)CC2)C1 [Example 336, 3-Methoxymethyl-1-{2-[4-(4-pyrimidin-2-yl-phenyl)-3,6-dihydro-2H-pyridin-1-yl]-acetyl}-pyrrolidine-3-carboxylic acid [3-(2-cyclopropyl-pyridin-4-yl)-1H-indazol-5-yl]-amide] |
| – | 0.16 to 18 | CO[C@@]1(C(=O)Nc2ccc3[nH]nc(-c4ccc(F)cc4)c3c2)CCN(CC(=O)N2CC=C(c3ccc(-c4ncc(F)cn4)c(F)c3)CC2)C1 [Example 661] |
| – | 0.16 to 18 | CO[C@@]1(C(=O)Nc2ccc3[nH]nc(-c4cc[n+]([O-])c(C)c4)c3c2)CCN(CC(=O)N2CC=C(c3ccc(-c4ncccn4)cc3)CC2)C1 [Example 666] |
| – | 0.16 to 18 | CO[C@@]1(C(=O)Nc2ccc3[nH]nc(-c4cc[n+]([O-])c(C5CC5)c4)c3c2)CCN(CC(=O)N2CC=C(c3ccc(-c4ncccn4)cc3)CC2)C1 [Example 670] |
| – | 0.16 to 18 | COc1cc(C2=CCN(C(=O)CN3CC[C@@](OC)(C(=O)Nc4ccc5[nH]nc(-c6ccnc(C7CC7)c6)c5c4)C3)CC2)ccc1-c1ncccn1 [Example 673] |
| – | 0.16 to 18 | CO[C@@]1(C(=O)Nc2ccc3[nH]nc(-c4ccnc(C(F)(F)F)c4)c3c2)CCN(CC(=O)N2CC=C(c3ccc(-c4ncccn4)cc3F)CC2)C1 [Example 682] |
| – | 0.16 to 18 | CO[C@@]1(C(=O)Nc2ccc3[nH]nc(-c4ccc(F)cc4)c3c2)CCN(CC(=O)N2CC=C(c3ccc(-c4ncccn4)s3)CC2)C1 [Example 737] |
| – | 0.16 to 18 | COCCOc1ccc(-c2n[nH]c3ccc(NC(=O)[C@]4(OC)CCN(CC(=O)N5CC=C(c6ncc(-c7ncccn7)cc6F)CC5)C4)cc23)cc1 [Example 738] |
| – | 0.16 to 18 | COCCOc1cc(-c2n[nH]c3ccc(NC(=O)[C@]4(OC)CCN(CC(=O)N5CC=C(c6ccc(-c7ncccn7)cc6)CC5)C4)cc23)ccc1F [Example 741] |
| – | 0.16 to 18 | COCc1cc(-c2n[nH]c3ccc(NC(=O)[C@]4(OC)CCN(CC(=O)N5CC=C(c6ccc(-c7ncccn7)cc6F)CC5)C4)cc23)ccc1F [Example 747] |
| – | 0.16 to 18 | COCCOc1ccc(-c2n[nH]c3ccc(NC(=O)[C@]4(OC)CCN(CC(=O)N5CC=C(c6ccc(-c7ncccn7)cc6)CC5)C4)cc23)cc1F [Example 749] |
| – | 0.16 to 18 | CO[C@@]1(C(=O)Nc2ccc3[nH]nc(-c4ccc(F)c(OCCO)c4)c3c2)CCN(CC(=O)N2CC=C(c3ccc(-c4ncccn4)cc3)CC2)C1 [Example 755] |
| – | 0.16 to 18 | CO[C@@]1(C(=O)Nc2ccc3[nH]nc(-c4ccc(F)c(NCCO)c4)c3c2)CCN(CC(=O)N2CC=C(c3ccc(-c4ncccn4)cc3)CC2)C1 [Example 757] |
| – | 0.16 to 18 | CO[C@@]1(C(=O)Nc2ccc3[nH]nc(-c4ccc(NCCO)cc4)c3c2)CCN(CC(=O)N2CC=C(c3ccc(-c4ncccn4)cc3)CC2)C1 [Example 758] |
| – | 0.16 to 18 | COCCOc1ccc(-c2n[nH]c3ccc(NC(=O)[C@]4(OC)CCN(CC(=O)N5CCC(c6ccc(-c7ncccn7)cc6)CC5)C4)cc23)cc1 [Example 764] |
| – | 0.16 to 18 | COCCOc1ccc(-c2n[nH]c3ccc(NC(=O)[C@]4(OC)CCN(CC(=O)N5CC=C(c6ncc(-c7ncccn7)s6)CC5)C4)cc23)cc1 [Example 765] |
| – | 0.16 to 18 | COCCOc1ccc(-c2n[nH]c3ccc(NC(=O)[C@]4(OC)CCN(CC(=O)N5CC=C(c6ccc(-c7ncccn7)cc6F)CC5)C4)cc23)cc1 [Example 767] |
| – | 0.16 to 18 | CO[C@@]1(C(=O)Nc2ccc3[nH]nc(-c4ccc(F)cc4)c3c2)CCN(CC(=O)N2CC=C(c3ncc(-c4ncccn4)s3)CC2)C1 [Example 776] |
| – | 0.16 to 18 | CO[C@@]1(C(=O)Nc2ccc3[nH]nc(-c4ccnc(C(F)F)c4)c3c2)CCN(CC(=O)N2CC=C(c3ccc(-c4ncccn4)cc3)CC2)C1 [Example 785] |
| – | 0.16 to 1.5 | CO[C@@]1(C(=O)Nc2ccc3[nH]nc(-c4ccc(F)c(CO)c4)c3c2)CCN(CC(=O)N2CC=C(c3ccc(-c4ncccn4)cc3)CC2)C1 [Example 787] |
| – | 0.16 to 18 | CO[C@@]1(C(=O)Nc2ccc3[nH]nc(-c4cn[nH]c4)c3c2)CCN(CC(=O)N2CC=C(c3ccc(-c4ncccn4)cc3)CC2)C1 [Example 796] |
| – | 0.16 to 18 | CO[C@@]1(C(=O)Nc2ccc3[nH]nc(-c4ccc(OCCO)cc4)c3c2)CCN(CC(=O)N2CC=C(c3ccc(-c4ncccn4)cc3)CC2)C1 [Example 822] |
| – | 0.16 to 18 | CO[C@@]1(C(=O)Nc2ccc3[nH]nc(-c4ccc(F)cc4)c3c2)CCN(CC(=O)N2CC=C(c3ccc(-c4ncc(N)cn4)cc3)CC2)C1 [Example 823] |
